Source: patent publication US20190099468A1, “METHOD TO PROTECT AND SEAL THE OCULAR SURFACE” (UNIVERSITY OF SOUTHERN CALIFORNIA, priority 2017, published 2019)
Counter-ions that a name gives are not always drawn.

Columns and labels:
[1] = tested on: HCLE monolayer cell cultures; test: Vital dye staining assay (fluorescein), oxidative stress, monolayer cells; format: cell-based, human; conditions: 3 mM tBHP, 2 hours; Genistein 200 uM, Chlorpromazine 8 ug/mL, Dynasore 40 uM; FIG. 2B
Text: (§1) The purpose of this study was to investigate mechanisms of dye uptake relevant to ocular surface disease. We hypothesized that stimulation of plasma membrane remodeling by sublethal cell damage would result in vital dye uptake into endocytic repair vesicles. Oxidative stress has been implicated in ocular surface damage due to dry eye and many other ocular surface disorders, thus we chose this as the damaging stress for our study. An aqueous stock solution of tert-butyl hydroperoxide (tBHP) was diluted into the medium of human cell cultures or mouse eye organ cultures as we have previously described. The final dilution of tBHP used for cell culture experiments was 3 mM or 10 mM (as indicated in the individual experimental details). A final dilution of 10 mM tBHP was used for mouse eye organ culture experiments. These optimal concentrations were determined empirically in dose-response assessments as causing a high level of vital dye staining without killing cells. As soon as tBHP was added, all cultures were returned to the cell culture incubator under 5% CO2 atmosphere. Stressed cultures were compared to unstressed controls incubated similarly for the same time period. […]
(§2) A telomerase-immortalized line of human corneal limbal epithelial (HCLE) cells was used for all experiments employing cell culture. […] Stratification was routinely evaluated using phase contrast microscopy; differentiation leading to glycocalyx barrier function was evaluated using the rose bengal penetration assay. […]
(§3) Vital dye staining of cells in culture was performed using sodium fluorescein (Sigma-Aldrich). […] Dye uptake was evaluated qualitatively by imaging. Images (excitation/emission=488/510 nm) were taken immediately after washing, so that staining could be evaluated before dye diffused. Fluorescein uptake by cultured cells was quantified using a plate reader and depicted in graphs as relative fluorescence units (RFU). Rose bengal uptake by cultured cells or eyes was quantified using a modification of a previously described method. […]

HCLE stratified cultures [2] = test: Vital dye staining assay (fluorescein, rose bengal), oxidative stress, stratified and differentiated cells; format: cell-based, human; conditions: 10 mM tBHP; Genistein 200 uM, Chlorpromazine 8 ug/mL, Dynasore 40 uM, Dyngo-4a 15 uM; FIG. 3B-D
Text: (§4) The purpose of this study was to investigate mechanisms of dye uptake relevant to ocular surface disease. We hypothesized that stimulation of plasma membrane remodeling by sublethal cell damage would result in vital dye uptake into endocytic repair vesicles. Oxidative stress has been implicated in ocular surface damage due to dry eye and many other ocular surface disorders, thus we chose this as the damaging stress for our study. An aqueous stock solution of tert-butyl hydroperoxide (tBHP) was diluted into the medium of human cell cultures or mouse eye organ cultures as we have previously described. The final dilution of tBHP used for cell culture experiments was 3 mM or 10 mM (as indicated in the individual experimental details). A final dilution of 10 mM tBHP was used for mouse eye organ culture experiments. These optimal concentrations were determined empirically in dose-response assessments as causing a high level of vital dye staining without killing cells. As soon as tBHP was added, all cultures were returned to the cell culture incubator under 5% CO2 atmosphere. Stressed cultures were compared to unstressed controls incubated similarly for the same time period. Cells were incubated for 2 to 3 hours and mouse eyes were incubated for 2.5 hours before endpoint determination.
(§5) To learn whether endocytosis was involved in dye uptake, the process was blocked by treating cells or eyes with endocytic inhibitors. Chlorpromazine hydrochloride (MP Biologicals, Solon, Ohio), an inhibitor of clathrin-mediated endocytosis, was used at a final dilution of 8 ug/mL. Genistein (Sigma-Aldrich, St Louis, Mo.), an inhibitor of caveolin-mediated endocytosis, was used at 200 uM final dilution. […] All inhibitors were dissolved in DMSO, which served as the treatment vehicle. The same volume of DMSO was added to matching untreated cultures as a vehicle control.
as §2, §3

cardiomyocyte = conditions: references [56-58]; cited from earlier work
HCLE monolayer cultures [3] = test: Trypan blue exclusion assay; format: cell-based, human; conditions: 10 mM tBHP, 3 hours; Dynasore 40 uM at the same time; FIG. 5B
Text: (§6) The purpose of this study was to investigate mechanisms of dye uptake relevant to ocular surface disease. We hypothesized that stimulation of plasma membrane remodeling by sublethal cell damage would result in vital dye uptake into endocytic repair vesicles. Oxidative stress has been implicated in ocular surface damage due to dry eye and many other ocular surface disorders, thus we chose this as the damaging stress for our study. An aqueous stock solution of tert-butyl hydroperoxide (tBHP) was diluted into the medium of human cell cultures or mouse eye organ cultures as we have previously described. […] These optimal concentrations were determined empirically in dose-response assessments as causing a high level of vital dye staining without killing cells. […]
as §2
Cells were stained with filtered 0.4% trypan blue dye (Thermo Fisher Scientific) for 4 minutes following 3 washes with PBS. The extent of staining was measured qualitatively by imaging under white light, and quantitatively using a plate reader at 590 nm.

HCLE stratified cultures [4] = test: Lectin binding (fluorescein-conjugated jacalin); format: cell-based, human; conditions: 3 mM tBHP, 2 hours; Dynasore 40 uM; FIG. 6A
Text: as §1, with “atmosphere.” for “atmosphere. Stressed cultures were compared to unstressed controls incubated similarly for the same time period.”
as §2

HCLE monolayer cultures [5] = test: MTT/WST-1 metabolic assays for cytotoxicity; format: cell-based, human; conditions: 10 mM tBHP, 2 hours; Dynasore 40 uM at the same time; FIG. 5A
Text: as §1, with “atmosphere.” for “atmosphere. Stressed cultures were compared to unstressed controls incubated similarly for the same time period.”
as §2

[6] = tested on: ocular surface of ex vivo mouse eyes; test: Vital dye staining assay, mouse eye organ culture under oxidative stress; conditions: for dye uptake at the ocular surface, post-treatment: 10 mM tBHP first, FIG. 4B; for vital dye uptake once the damage was done: used after stress was applied
Text: as §4, §5
The University of Southern California's Institutional Animal Care and Use Committee approved the research protocol number 11412 for use of mice in this study. Research was conducted in adherence with the Association for Research in Vision and Ophthalmology (ARVO) Statement for the Use of Animals in Ophthalmic and Visual Research. Wild type C57B1/6J mice, 6-8 weeks of age, were purchased from Jackson Labs (Bar Harbor, Me.). Prior to use in an experiment, mice were housed in a pathogen-free barrier facility and kept at […], relative humidity 60%±10%, with alternating 12-hour light/dark cycles. To obtain eyes for organ culture, euthanasia was performed using compressed CO2 gas, according to the American Veterinary Medical Association Guidelines for the Euthanasia of Animals: 2013 Edition. […]
Vital dye staining of cells in culture was performed using sodium fluorescein (Sigma-Aldrich). […] Dye uptake was evaluated qualitatively by imaging. Images (excitation/emission=488/510 nm) were taken immediately after washing, so that staining could be evaluated before dye diffused. Fluorescein uptake by cultured cells was quantified using a plate reader and depicted in graphs as relative fluorescence units (RFU). Rose bengal uptake by cultured cells or eyes was quantified using a modification of a previously described method. After imaging, the stained cells or eyes were incubated in 100 uL of DMSO at room temperature for 1 hour, and the solution was recovered into the wells of a 96 well plate to read in a plate reader at 562 nm.

[7] = tested on: MPS-treated monolayer cells; conditions: publication [61]; cited from earlier work
LGALS3 = test: Western blotting of LGALS3 in cell culture medium; format: cell-based, human; conditions: stratified cultures, 3 mM tBHP, 2 hours; Dynasore 40 uM; FIG. 6B
Text: as §1, with “atmosphere.” for “atmosphere. Stressed cultures were compared to unstressed controls incubated similarly for the same time period.”
as §2

HCLE monolayer cultures [8] = test: Endocytosis assay: uptake of Alexa Fluor 568-conjugated TF under oxidative stress; format: cell-based, human; conditions: 3 mM tBHP; co-treatment with Dynasore 40 uM; FIG. 2A
Text: as §6, §2
Endocytosis was quantified by monitoring cell uptake of human Alexa Fluor 568-conjugated TF (serum transferrin; Thermo Fisher Scientific, Waltham, Mass.). […] Cells were then imaged with a Keyence BZ-X700 fluorescence microscope (excitation/emission=532/588 nm). Alexa Fluor 568-conjugated TF uptake was quantified by image J analysis.

ocular surface barrier = conditions: mouse model, desiccating stress; cited from earlier work

## CN(C)CCCN1c2ccccc2Sc2ccc(Cl)cc21 [Chlorpromazine, Chlorpromazine hydrochloride]
[1]
  stress-stimulated fluorescein dye uptake: blocked
HCLE stratified cultures [2]
  oxidative stress-stimulated vital dye uptake in stratified and differentiated cell cultures: no effect on vital dye uptake

## O=C(N/N=C/c1ccc(O)c(O)c1)c1cc2ccccc2cc1O [Dynasore]
[1]
  stress-stimulated fluorescein dye uptake: also blocked
cardiomyocyte
  cardiomyocyte apoptosis following oxidative stress: protects cardiomyocyte against entering apoptosis following oxidative stress
HCLE monolayer cultures [3]
  protection against oxidative stress-induced trypan blue staining: remarkably protective, essentially eliminating trypan blue staining
HCLE stratified cultures [4]
  jacalin staining of cell surface mucin-type glycoconjugates: no effect
HCLE stratified cultures [2]
  oxidative stress-stimulated vital dye uptake in stratified and differentiated cell cultures: very effective inhibitor
HCLE monolayer cultures [5]
  protection against oxidative stress-induced increase of MTT/WST-1 absorbance: protective, in particular for the WST-1 assay
[6]; then Dynasore 40 uM for 15 or 30 minutes
  dye uptake at the ocular surface, post-treatment: dye uptake was not reduced
[6]; then Dynasore 80 uM for 15 or 30 minutes
  dye uptake at the ocular surface, post-treatment: dye uptake was not reduced
[6]; 10 mM tBHP, Dynasore 40 uM at the same time as stress, FIG. 4A
  dye uptake at the ocular surface, co-treatment: dye uptake was prevented
[6]
  vital dye uptake once the damage was done: no effect on vital dye uptake
[7]
  uptake of fluorescein in MPS-treated cells: inhibited uptake of fluorescein
LGALS3
  oxidative stress-caused increase in LGALS3 in the cell culture medium: inhibited this increase
HCLE monolayer cultures [8]
  stress-stimulated TF uptake (endocytosis): blocked stress-stimulated TF uptake

## O=C(N/N=C/c1cc(O)c(O)cc1O)c1cc2ccccc2cc1O [Dyngo-4a]
HCLE stratified cultures [2]
  oxidative stress-stimulated vital dye uptake in stratified and differentiated cell cultures: very effective inhibitor of vital dye uptake
[6]
  vital dye uptake once the damage was done: no effect on vital dye uptake

## O=c1c(-c2ccc(O)cc2)coc2cc(O)cc(O)c12 [Genistein]
[1]
  stress-stimulated fluorescein dye uptake: blocked
HCLE stratified cultures [2]
  oxidative stress-stimulated vital dye uptake in stratified and differentiated cell cultures: no effect on vital dye uptake

## CLU: homeostatic protein clusterin, prominent at fluid-tissue interfaces; SEQ ID NO: 1 is the human isoform 2 preproprotein
Ocular surface barrier
  ocular surface barrier disruption: prevents and ameliorates ocular surface barrier disruption
